According to patent US10988459B2 (priority 2015, dated 2021):

What follows are compounds tested against human RIP1 kinase domain (2-375) (Homo sapiens (Human), UniProt Q13546) (assay: biochemical). Settings: Table 1; apparent Ki (Morrison tight-binding fit); 50 nM RIP1 kinase domain, 50 uM ATP, 2 hours incubation; read-out: RIP1 Ki.
Assay type: biochemical
How it was run: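 Ki^app comes from Morrison tight-binding fits of fractional activity versus compound concentration. Activity was read as ADP production, via tracer displacement lowering fluorescence polarization (633 nm laser). Conditions: 2 h, 50 nM insect-cell-expressed enzyme, 50 uM ATP, 30 mM MgCl2, 1 mM DTT, 0.5% DMSO, pH 7.5 Hepes.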

Sequence of human RIP1 kinase domain (2-375) (Q13546 2-375): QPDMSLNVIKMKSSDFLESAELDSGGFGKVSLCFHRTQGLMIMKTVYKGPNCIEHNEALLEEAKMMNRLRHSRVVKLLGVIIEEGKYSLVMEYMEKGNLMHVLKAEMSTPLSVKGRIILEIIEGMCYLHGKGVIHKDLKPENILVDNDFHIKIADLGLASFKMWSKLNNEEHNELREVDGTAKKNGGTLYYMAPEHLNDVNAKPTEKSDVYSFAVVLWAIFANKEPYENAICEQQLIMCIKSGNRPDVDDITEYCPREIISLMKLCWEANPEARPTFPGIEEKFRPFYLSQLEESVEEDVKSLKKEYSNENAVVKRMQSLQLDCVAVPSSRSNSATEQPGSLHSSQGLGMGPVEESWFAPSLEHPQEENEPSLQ

Structure (SMILES)	Ki [nM]
CC1CCc2[nH]nc(C(=O)N[C@H]3COc4ccccc4NC3=O)c2C1 (stereo partly drawn) [Example 57, 5-methyl-N-((S)-4-oxo-2,3,4,5-tetrahydrobenzo[b][1,4]oxazepin-3-yl)-4,5,6,7-tetrahydro-1H-indazole-3-carboxamide]	276
CN1C(=O)[C@@H](NC(=O)c2n[nH]c3c2CCC3)COc2ccccc21 [Example 48, (S)-N-(5-methyl-4-oxo-2,3,4,5-tetrahydrobenzo[b][1,4]oxazepin-3-yl)-1,4,5,6-tetrahydrocyclopenta[c]pyra7.ole-3-carboxamide]	8600
CC(C)(C)C1CCc2[nH]nc(C(=O)N[C@H]3CCc4cc(Cl)ccc4NC3=O)c2C1 (stereo partly drawn) [Example 47, 5-(tert-butyl)-N-((S)-7-chloro-2-oxo-2,3,4,5-tetrahydro-1H-benzo[b]azepin-3-yl)-4,5,6,7-tetrahydro-1H-indazole-3-carboxamide]	350
CN1C(=O)[C@@H](NC(=O)c2n[nH]c3c2CCC2(CC2)C3)COc2ccccc21 [Example 2, (S)—N-(5-methyl-4-oxo-2,3,4,5-tetrahydrobenzo[b][1,4]oxazepin-3-yl)-1′,4′,5′,7′-tetrahydrospiro[cyclopropane-1,6′-indazole]-3′-carboxamide]	6500

Same assay, conditions: Table 5; apparent Ki (Morrison tight-binding fit); 50 nM RIP1 kinase domain, 50 uM ATP, 2 hours incubation; read-out: Ki

Structure (SMILES)	Ki [nM]
Cc1cc2n(n1)CC[C@H](NC(=O)c1ccn(Cc3ccccc3)n1)C(=O)N2C [Example 741, 1-benzyl-N-[(6S)-2,4-dimethyl-5-oxo-7,8-dihydro-6H-pyrazolo[1,5-a][1,3]diazepin-6-yl]pyrazole-3-carboxamide]	140
CN1C(=O)C(NC(=O)c2ncn(Cc3ccccc3)n2)CCn2nc(CN3CC(F)C3)cc21 (single isomer, unassigned) [Example 721, 1-benzyl-N-[2-[(3-fluoroazetidin-1-yl)methyl]-4-methyl-5-oxo-7,8-dihydro-6H-pyrazolo[1,5-a][1,3]diazepin-6-yl]-1,2,4-triazole-3-carboxamide]	355
CN1C(=O)[C@@H](NC(=O)c2ncn(Cc3ccccc3)n2)CCn2nc(CN3CCOCC3)cc21 (single isomer, unassigned) [Example 720]	155
COCCNCc1cc2n(n1)CC[C@H](NC(=O)c1ncn(Cc3ccccc3)n1)C(=O)N2C (single isomer, unassigned) [Example 728]	225

Same assay, conditions: human RIP1 kinase domain (2-375), 50 uM ATP, 2 hours incubation, Transcreener ADP assay; read-out: RIP1 Ki

Structure (SMILES)	Ki [nM]
CN1C(=O)[C@@H](NC(=O)c2nnc(Cc3ccc(F)cc3)[nH]2)CCn2nccc21 [Example 98, (S)-5-(4-fluorobenzyl)-N-(4-methyl-5-oxo-5,6,7,8-tetrahydro-4H-pyrazolo[1,5-a][1,3]diazepin-6-yl)-4H-1,2,4-triazole-3-carboxamide]	70.4
CC(C)n1ncc2cnc(C(=O)N[C@H]3COc4ccccc4N(C)C3=O)cc21 [Example 213, (S)-1-isopropyl-N-(5-methyl-4-oxo-2,3,4,5-tetrahydrobenzo[b][1,4]oxazepin-3-yl)-1H-pyrazolo[4,3-c]pyridine-6-carboxamide]	12.3
CC1CCn2cnc(C(=O)N[C@H]3COc4ccccc4N(C)C3=O)c2C1 (some centres unmarked) [Example 190]	262
CN1C(=O)[C@@H](NC(=O)c2ncc3c(n2)C(C)(C)SC3)COc2ccccc21 [Example 218, (S)-7,7-dimethyl-N-(5-methyl-4-oxo-2,3,4,5-tetrahydrobenzo[b][1,4]oxazepin-3-yl)-5,7-dihydrothieno[3,4-d]pyrimidine-2-carboxamide]	25.4

Same assay, conditions: human RIP1 kinase domain (2-375), Transcreener ADP assay, 50 uM ATP, 2 hours incubation; read-out: RIP1 Ki

Structure (SMILES)	Ki [nM]
CN1C(=O)[C@@H](NC(=O)c2ncn(CC3CC3(F)F)n2)CCn2nc(C3CC3)cc21 (stereo in doubt) [Example 291, (S)—N-(2-cyclopropyl-4-methyl-5-oxo-5,6,7,8-tetrahydro-4H-pyrazolo[1,5-a][1,3]diazepin-6-yl)-1-((2,2-difluorocyclopropyl)methyl)-1H-1,2,4-triazole-3-carboxamide]	820
CN1C(=O)[C@@H](NC(=O)c2cc3c(cn2)COC3(C)CC(F)(F)F)COc2ccccc21 (stereo partly drawn) [Example 229, 1-methyl-N—((S)-5-methyl-4-oxo-2,3,4,5-tetrahydrobenzo[b][1,4]oxazepin-3-yl)-1-(2,2,2-trifluoroethyl)-1,3-dihydrofuro[3,4-c]pyridine-6-carboxamide]	44.6
Cc1cc2n(n1)CCC(NC(=O)c1ncn(CC3CCCCC3)n1)C(=O)N2C (centres unmarked) [Example 253, 1-(cyclohexylmethyl)-N-(2,4-dimethyl-5-oxo-5,6,7,8-tetrahydro-4H-pyrazolo[1,5-a][1,3]diazepin-6-yl)-1H-1,2,4-triazole-3-carboxamide]	171
CC[C@@]1(C)OCc2cnc(C(=O)N[C@@H]3CCn4nc([C@H]5CC5(F)F)cc4N(C)C3=O)cc21 [Example 324, (R)—N—((R)-2-((R)-2,2-difluorocyclopropyl)-4-methyl-5-oxo-5,6,7,8-tetrahydro-4H-pyrazolo[1,5-a][1,3]diazepin-6-yl)-1-ethyl-1-methyl-1,3-dihydrofuro[3,4-c]pyridine-6-carboxamide]	1290
Cc1cc2n(n1)CC[C@@H](NC(=O)c1nnc(Cc3ccc(F)cc3)[nH]1)C(=O)N2C [Example 329, (R)—N-(2,4-dimethyl-5-oxo-5,6,7,8-tetrahydro-4H-pyrazolo[1,5-a][1,3]diazepin-6-yl)-5-(4-fluorobenzyl)-4H-1,2,4-triazole-3-carboxamide]	3810

Same assay, conditions: tight-binding apparent inhibition constant; human RIP1 kinase domain (2-375) 50 nM, 50 uM ATP, 2 hours; read-out: Ki

Structure (SMILES)	Ki [nM]
CC(O)c1cc2n(n1)CC[C@H](NC(=O)c1ncn(Cc3ccccc3)n1)C(=O)N2C (single isomer, unassigned) [Example 367]	161
CN1C(=O)[C@@H](NC(=O)c2nc3n(n2)C(c2ccccc2)CCC3)CCn2nccc21 (stereo partly drawn) [Example 380, N—((S)-4-methyl-5-oxo-5,6,7,8-tetrahydro-4H-pyrazolo[1,5-a][1,3]diazepin-6-yl)-5-phenyl-5,6,7,8-tetrahydro-[1,2,4]triazolo[1,5-a]pyridine-2-carboxamide]	154
Cc1cc(F)c2c(c1)OC[C@H](NC(=O)c1nc3n(n1)[C@H](C(F)(F)F)CC3)C(=O)N2 [Example 347, (5S)—N-[(3S)-6-fluoro-8-methyl-4-oxo-3,5-dihydro-2H-1,5-benzoxazepin-3-yl]-5-(trifluoromethyl)-6,7-dihydro-5H-pyrrolo[1,2-b][1,2,4]triazole-2-carboxamide]	4.91

Continued, values first:

Ki [nM]	Structure (SMILES)
51	CN1C(=O)C(NC(=O)c2ncn(Cc3ccccc3)n2)CCn2nc(CC3CC3)cc21 (centres unmarked) [Example 456, 1-Benzyl-N-(2-(cyclopropylmethyl)-4-methyl-5-oxo-5,6,7,8-tetrahydro-4H-pyrazol[1,5-a][1,3]diazepin-6-yl)-1H-1,2,4-triazole-3-carboxamide]
18	O=C(N[C@H]1CCc2cc(F)cc(F)c2NC1=O)c1ncc2c(n1)C1(CCCC1)OC2 [Example 637, N-[(3S)-7,9-difluoro-2-oxo-1,3,4,5-tetrahydro-1-benzazepin-3-yl]spiro[5H-furo[3,4-d]pyrimidine-7,1′-cyclopentane]-2-carboxamide]
140	CN1C(=O)[C@@H](NC(=O)c2ncn(Cc3ncccc3F)n2)CCn2nc(C3CC3)cc21 [Example 655]
450	O=C(N[C@H]1COc2cc(F)cc(F)c2NC1=O)c1nc2n(n1)CCC2c1ccccc1 (stereo in doubt) [Example 625, (7S)-7-phenyl-N-[(3S)-6,8-difluoro-4-oxo-3,5-dihydro-2H-1,5-benzoxazepin-3-yl]-6,7-dihydro-5H-pyrrolo[1,2-b][1,2,4]triazole-2-carboxamide]
115	CN1C(=O)[C@@H](NC(=O)c2ncn(Cc3ccccc3)n2)CCn2nc(CN3CCOCC3)cc21 (single isomer, unassigned) [Example 449]
74	Cc1cc2n(n1)CC[C@H](NC(=O)c1ncn(Cc3ncccc3Cl)n1)C(=O)N2C [Example 657, 1-[(3-chloro-2-pyridyl)methyl]-N-(6S)-2,4-dimethyl-5-oxo-7,8-dihydro-6H-pyrazolo[1,5-a][1,3]diazepin-6-yl-1,2,4-triazole-3-carboxamide]
92	CN1C(=O)[C@@H](NC(=O)c2ncn(C[C@H]3C[C@@H](C(F)(F)F)C3)n2)CCn2nccc21 [Example 493]
3.4	Cc1cc(F)c2c(c1)OC[C@H](NC(=O)c1nc3cccc(C(C)C)n3n1)C(=O)N2 [Example 423, (S)—N-(6-fluoro-8-methyl-4-oxo-2,3,4,5-tetrahydrobenzo[b][1,4]oxazepin-3-yl)-5-isopropyl-[1,2,4]triazolo[1,5-a]pyridine-2-carboxamide]
113	CN1C(=O)[C@@H](NC(=O)c2ncc3c(n2)[C@@]2(CCCOC2)OC3)COc2ccccc21 (racemic) [Example 692, rac-(7R)-N-[rac-(3S)-5-methyl-4-oxo-2,3-dihydro-1,5-benzoxazepin-3-yl]spiro[5H-furo[3,4-d]pyrimidine-7,3′-tetrahydropyran]-2-carboxamide]
100	CN1C(=O)[C@@H](NC(=O)c2ncn(CC3(C)CCC3)n2)CCn2nc(C3CC3)cc21 [Example 561]
299	CN1C(=O)C(NC(=O)c2ncn(Cc3ccccc3)n2)CCn2nc(CN3CCOCC3)cc21 (centres unmarked) [Example 443, 1-benzyl-N-(4-methyl-2-(morpholinomethyl)-5-oxo-5,6,7,8-tetrahydro-4H-pyrazolo[1,5-a][1,3]diazepin-6-yl)-1H-1,2,4-triazole-3-carboxamide]
709	CN1C(=O)[C@@H](NC(=O)c2nc3n(n2)C(c2cnn(C)c2)CCC3)CCn2nccc21 (stereo partly drawn) [Example 397, 5-(1-methyl-1H-pyrazol-4-yl)-N—((S)-4-methyl-5-oxo-5,6,7,8-tetrahydro-4H-pyrazolo[1,5-a][1,3]diazepin-6-yl)-5,6,7,8-tetrahydro-[1,2,4]triazolo[1,5-a]pyridine-2-carboxamide]
